Experimental data from patent publication US10440955B2, “Methods comprising a biocidal polyamine” (Curza Global, LLC, priority 2013, dated 2019).
In brackets after ≈: the same amount, converted by molar mass. Structures can show the parent of a compound that is named as a salt. Where two headings read alike, the source gives them in different places.

Assays:
[1] = tested on: P. aeruginosa; assay: MIC, 96-well CAMHB, 10^5 to 10^2 CFU/mL in 24 hours; format: cell-based, Pseudomonas aeruginosa; settings: for MIC: Pseudomonas aeruginosa
Description: (§1) To determine the MIC of polyamine compounds, the protocol described herein was used.
(§2) In brief, a 0.5 McFarland of each bacterial isolate was made. A 0.5 McFarland is a measure of turbidity in a liquid sample that contains approximately 1×10^∧8 CFU/mL. The 0.5 McFarland standard was diluted in cation adjusted Mueller Hinton Broth (CAMHB), and 50 μL of broth were added to a well of a 96-well plate. In addition, 50 μL of CAMHB that contained a desired concentration of antimicrobial were also added to the well for a final volume of 100 μL and a final concentration of approximately 5×10^4 CFU/well (which equated to approximately 5×10^5 CFU/mL). Each well contained a desired amount of polyamine compound in order to experimentally determine the MIC. Each 96-well plate was incubated at 37° C. for 24 hours. The contents of each well were plated on tryptic soy agar (TSA). TSA plates were incubated for 37° C. for 24 hours after which the number of CFU were counted and used to calculate the CFU/mL that remained after exposure to varying concentrations of compound. This procedure was repeated n=8 times for each concentration of antimicrobial.

[2] = tested on: MRSA; assay: as above; format: cell-based, Staphylococcus aureus; settings: for MIC: Staphylococcus aureus, MRSA, read-out: MIC (MRSA)
Description: as §1
as §2, with “antimicrobial. […]” for “antimicrobial.”

[3] = tested on: L-929 cells (ATCC CCL-1); assay: Minimal Essential Media (MEM) Elution cytotoxicity test; format: cell-based; settings: Table 11A
Description: Summary: The Minimal Essential Media (MEM) Elution test was designed to determine the cytotoxicity of extractable substances. The test article was added to cell monolayers and incubated. The cell monolayers were examined and scored based on the degree of cellular destruction.
Acceptance Criteria: The United States Pharmacopeia & National Formulary (USP <87>) states that the test article meets the requirements, or receives a passing score (Pass) if the reactivity grade is not greater than grade 2 or a mild reactivity.
Acceptance criteria were based upon the negative and media controls receiving “0” reactivity grades and positive controls receiving a 3-4 reactivity grades (moderate to severe).
The cell monolayers were examined microscopically. The wells were scored as to the degree of discernable morphological cytotoxicity on a relative scale of 0 to 4:
The results from the three wells were averaged to give a final cytotoxicity score.
[…] This initial concentration was then diluted 1: 2, 1:4, 1:8, and 1:16. Multiple well cell culture plates were seeded with a verified quantity of industry standard L-929 cells (ATCC CCL-1) and incubated until approximately 80% confluent. The test articles and control extracts were added to the cell monolayers in triplicate. The cells were incubated at 37±1° C. with 5±1% CO2 for 48±3 hours.

[4] = read-out: MIC (P. aeruginosa), Table 5
[5] = Table 5, read-out: MIC (P. aeruginosa)

## N^1,N^1′,N^1″-((4′-(trifluoromethyl)-[1,1′-biphenyl]-3,3′,5-triyl)tris(methylene))tris(N3-(3-aminopropyl)propane-1,3-diamine), hydrochloride salt [CZ-69]
[1]; Table 5
  MIC (P. aeruginosa): +++ (+++ = 50 μM > MIC. MIC results of “>n μM” or “<n μM” will also be designated as +++ if n <50.)
[2]; Table 5
  MIC (MRSA): +++ (+++ = 50 μM > MIC. MIC results of “>n μM” or “<n μM” will also be designated as +++ if n <50.)

## CCCCOc1cc(CNCCCNCCCN)cc(CNCCCNCCCN)c1 [CZ-76, N^1,N^1′-((5-butoxy-1,3-phenylene)bis(methylene))bis(N3-(3-aminopropyl)propane-1,3-diamine), hydrochloride salt]
[1]; [4]
  MIC: 50 to 100 µM
[2]
  MIC: < 50 µM

## CC(C)CNCCCNCCCNCc1cc(CNCCCNCCCNCC(C)C)cc(OC2CCCCC2)c1 [CZ-104, N^1,N^1′-((5-(cyclohexyloxy)-1,3-phenylene)bis(methylene))bis(N^3-(3-(isobutylamino)propyl)propane-1,3-diamine)]
[1]; Table 5
  MIC (P. aeruginosa): ++ to +++
[2]; Table 5
  MIC: < 50 µM

## NCCCNCCCNCc1cc(O)cc(CNCCCNCCCN)c1 [CZ-87, 3,5-bis(((3-((3-aminopropyl)amino)propyl)amino)methyl)phenol]
[1]; [5]
  MIC: < 50 µM
[2]; Table 5
  MIC: < 50 µM

## c1ccc(-c2cc(CNCCCNCCCNCC3CCCCC3)cc(CNCCCNCCCNCC3CCCCC3)c2)cc1 [CZ-96, N^1,N^1′-([1,1′-biphenyl]-3,5-diylbis(methylene))bis(N^3-(3-((cyclohexylmethyl)amino)propyl)propane-1,3-diamine)]
[3]; 25 μg/mL
  Results Pass/Fail: Pass (receives a passing score (Pass) if the reactivity grade is not greater than grade 2 or a mild reactivity)
[3]; dilution 1:2 of 25 μg/mL
  Results Pass/Fail: Pass (receives a passing score (Pass) if the reactivity grade is not greater than grade 2 or a mild reactivity)
[3]; dilution 1:4 of 25 μg/mL
  Results Pass/Fail: Pass (receives a passing score (Pass) if the reactivity grade is not greater than grade 2 or a mild reactivity)
[3]; dilution 1:8 of 25 μg/mL
  Results Pass/Fail: Pass (receives a passing score (Pass) if the reactivity grade is not greater than grade 2 or a mild reactivity)
[3]; dilution 1:16 of 25 μg/mL
  Results Pass/Fail: Pass (receives a passing score (Pass) if the reactivity grade is not greater than grade 2 or a mild reactivity)
[1]; [5]
  MIC: < 50 µM
[2]; Table 5
  MIC: < 50 µM

## CC(C)CNCCCOc1cc(CNCCCNCCCN)cc(CNCCCNCCCN)c1 [CZ-107, N^1,N^1′-((5-(3-(isoButylammonio)propoxy)-1,3-phenylene)bis(methylene))-bis(N^3-(3-ammoniopropyl)propane-1,3-diaminium) chloride]
[1]; [4]
  MIC: 50 to 100 µM
[2]
  MIC: < 50 µM

## NCCCNCCCNCc1cc(CNCCCNCCCN)cc(-c2cc(C(F)(F)F)cc(C(F)(F)F)c2)c1 [CZ-70, N^1,N^1′-((3′,5′-bis(trifluoromethyl)-[1,1′-biphenyl]-3,5-diyl)bis(methylene))bis(N^3-(3-aminopropyl)propane-1,3-diamine), hydrochloride salt]
[1]; [4]
  MIC: < 50 µM
[2]
  MIC: < 50 µM

## CC(C)CNCCCNCCCNCc1cccc(-c2cc(CNCCCNCCCNCC(C)C)cc(CNCCCNCCCNCC(C)C)c2)c1 [CZ-99, N^1,N^1′,N^1″-([1,1′-biphenyl]-3,3′,5-triyltris(methylene))tris(N^3-(3-(isobutylamino)propyl)propane-1,3-diamine)]
[3]; 25 μg/mL
  Results Pass/Fail: Pass (receives a passing score (Pass) if the reactivity grade is not greater than grade 2 or a mild reactivity)
[3]; dilution 1:2 of 25 μg/mL
  Results Pass/Fail: Pass (receives a passing score (Pass) if the reactivity grade is not greater than grade 2 or a mild reactivity)
[3]; dilution 1:4 of 25 μg/mL
  Results Pass/Fail: Pass (receives a passing score (Pass) if the reactivity grade is not greater than grade 2 or a mild reactivity)
[3]; dilution 1:8 of 25 μg/mL
  Results Pass/Fail: Pass (receives a passing score (Pass) if the reactivity grade is not greater than grade 2 or a mild reactivity)
[3]; dilution 1:16 of 25 μg/mL
  Results Pass/Fail: Pass (receives a passing score (Pass) if the reactivity grade is not greater than grade 2 or a mild reactivity)
[1]; Table 5
  MIC (P. aeruginosa): ++ to +++
[2]; Table 5
  MIC: < 50 µM

## tri-tert-butyl-(((((benzene-1,3,5-triyltris(methylene))tris(azanediyl))tris-(propane-3,1-diyl))tris(azanediyl))tris(propane-3,1-diyl))tricarbamate, hydrochloride salt [CZ-54]
[1]; Table 5
  MIC (P. aeruginosa): +++ (+++ = 50 μM > MIC. MIC results of “>n μM” or “<n μM” will also be designated as +++ if n <50.)
[2]; Table 5
  MIC (MRSA): +++ (+++ = 50 μM > MIC. MIC results of “>n μM” or “<n μM” will also be designated as +++ if n <50.)

## NCCCNCCCNCc1cc(CNCCCNCCCN)cc(OC2CCCCC2)c1 [CZ-105]
[1]; [5]
  MIC: 50 to 100 µM (≈ 23.1 to 46.3 µg/mL)
[2]; Table 5
  MIC: < 50 µM

## CC(C)Oc1cc(CNCCCNCCCN)cc(CNCCCNCCCN)c1 [CZ-93, N^1,N^1′-((5-isopropoxy-1,3-phenylene)bis(methylene))bis(N^3-(3-aminopropyl)propane-1,3-diamine)]
[1]; [5]
  MIC: < 50 µM
[2]; Table 5
  MIC: < 50 µM

## NCCCNCCCNCc1cc(CNCCCNCCCN)cc(OCC2CCCCC2)c1 [CZ-101, N^1,N^1′-((5-(cyclohexylmethoxy)-1,3-phenylene)bis(methylene))bis(N^3-(3-aminopropyl)propane-1,3-diamine), hydrochloride salt]
[1]; [4]
  MIC: < 50 µM
[2]
  MIC: < 50 µM

## CC(C)CNCCCNCCCNCc1cc(CNCCCNCCCNCC(C)C)cc(OCc2ccccc2)c1 [CZ-106, N^1,N^1′-((5-(benzyloxy)-1,3-phenylene)bis(methylene))bis(N^3-(3-(isobutylamino)propyl)propane-1,3-diamine)]
[1]; [5]
  MIC: 50 to 100 µM (≈ 29.1 to 58.3 µg/mL)
[2]; Table 5
  MIC: < 50 µM

## NCCCCCCCCCCCCNCc1cc(CNCCCCCCCCCCCCN)cc(-c2ccccc2)c1 [CZ-115, N^1,N^1′-([1,1′-biphenyl]-3,5-diylbis(methylene))bis(dodecane-1,12-diamine)]
[1]; [5]
  MIC: < 50 µM
[2]; Table 5
  MIC: < 50 µM

## CC(C)CNCCCNCC(C)(C)CNCc1cc(CNCC(C)(C)CNCCCNCC(C)C)cc(-c2ccccc2)c1 [CZ-112, N^1,N^1′-([1,1′-biphenyl]-3,5-diylbis(methylene))bis(N^3-(3-(isobutylamino)propyl)-2,2-dimethylpropane-1,3-diamine)]
[1]; [5]
  MIC: < 50 µM
[2]; Table 5
  MIC: < 50 µM

## CC(C)CNCCCCCCCCCCCCNCc1cccc(-c2cc(CNCCCCCCCCCCCCNCC(C)C)cc(CNCCCCCCCCCCCCNCC(C)C)c2)c1 [CZ-117, N^1,N^1′,N^1″-([1,1′-biphenyl]-3,3′,5-triyltris(methylene))tris(N^12-isobutyldodecane-1,12-diamine)]
[1]; [5]
  MIC: < 50 µM
[2]; Table 5
  MIC: < 50 µM

## CCCCCCNCCCNCCCNCc1cc(CNCCCNCCCNCCCCCC)cc(-c2ccccc2)c1 [CZ-114, N^1,N^1′-([1,1′-biphenyl]-3,5-diylbis(methylene))bis(N^3-(3-(hexylamino)propyl)propane-1,3-diamine)]
[1]; [5]
  MIC: < 50 µM
[2]; Table 5
  MIC: < 50 µM

## CCCCCCNCCCNCCCCNCc1cccc(CNCCCCNCCCNCCCCCC)c1 [CZ-119, N^1,N^1′-(1,3-phenylenebis(methylene))bis(N^4-(3-(hexylamino)propyl)butane-1,4-diamine)]
[1]; [5]
  MIC: < 50 µM
[2]; Table 5
  MIC: < 50 µM
